{"source": "paper PMC6337383", "about": "“Discovery of Potent Inhibitors for the Large Neutral Amino Acid Transporter 1 (LAT1) by Structure-Based Methods” (International Journal of Molecular Sciences, 2018)", "key": {"LAT1 [1]": {"tested_on": "LAT1", "settings": "experimental value, compared with MM-PBSA prediction"}, "recombinant human LAT1 [2]": {"target": "T1, recombinant human LAT1 (Homo sapiens, UniProt Q01650)", "T1 construct": "made in house; host or cells: E. coli", "T1 sequence (Q01650 whole entry)": "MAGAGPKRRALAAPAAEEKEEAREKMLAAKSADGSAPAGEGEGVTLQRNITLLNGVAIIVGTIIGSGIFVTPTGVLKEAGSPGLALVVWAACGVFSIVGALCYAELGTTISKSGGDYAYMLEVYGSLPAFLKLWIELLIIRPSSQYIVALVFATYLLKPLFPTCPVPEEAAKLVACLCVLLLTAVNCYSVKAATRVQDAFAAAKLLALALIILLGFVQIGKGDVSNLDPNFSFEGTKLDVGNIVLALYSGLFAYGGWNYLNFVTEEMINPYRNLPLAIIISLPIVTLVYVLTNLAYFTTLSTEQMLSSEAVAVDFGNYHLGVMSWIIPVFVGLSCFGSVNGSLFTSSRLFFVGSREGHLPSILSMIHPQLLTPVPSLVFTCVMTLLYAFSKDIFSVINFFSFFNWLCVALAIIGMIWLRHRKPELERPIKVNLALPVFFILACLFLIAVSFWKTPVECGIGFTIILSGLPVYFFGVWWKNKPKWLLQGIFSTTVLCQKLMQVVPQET", "settings": "cited from earlier work"}, "cancer growth": {"tested_on": "cancer growth", "design": "method as in PMID 21187458, PMID 18520037, PMID 18813831", "settings": "cited from earlier work"}, "recombinant human LAT1 [3]": {"target": "T1, recombinant human LAT1", "assay": "Inhibition of LAT1 mediated [3H]-His transport in proteoliposomes reconstituted with recombinant purified human LAT1", "format": "biochemical", "design": "Dose-response analysis, Mean / Dose-response analysis, single experiments: unit not given here", "settings": "for % Residual Activity: 100 µM concentration, n = 3, Table S6; for Dose-response analysis, single experiments: Exp. 1, Exp. 2, Exp. 3 in this order; for Dose-response analysis, Mean: mean of Exp. 1-3", "protocol": "All 30 compounds were evaluated for their potency to inhibit LAT1 mediated histidine transport in proteoliposomes reconstituted with recombinant purified human LAT1 (see Methods). […]\nHuman LAT1 was over-expressed in E. coli and was purified as previously described. In brief, solubilized cell lysate was centrifuged (12,000× g, 10 min, 4 °C); supernatant was applied on a His-Trap HP column (5 mL Ni Sepharose) connected to ÄKTA start system. The column was equilibrated with 10 mL buffer (20 mM Tris HCl pH 8.0, 10% glycerol, 200 mM NaCl, 0.1% sarkosyl) prior to supernatant application. The column was washed with 10 mL buffer (20 mM Tris HCl pH 8.0, 10% glycerol, 200 mM NaCl, 0.05% DDM, and 2 mM DTE) and the protein was eluted with the same buffer plus 400 mM imidazole. Purified protein was desalted, in order to remove imidazole, using a PD-10 column in a buffer containing 20 mM Tris HCl pH 8.0, 10% glycerol, 0.05% DDM and 10 mM DTE.\nThe purified human LAT1 was reconstituted by detergent removal approach using the batch-wise method, as previously described. In brief, the initial mixture contained: 4 μg of purified protein, 100 μL of 10% C12E8, 100 μL of 10% egg yolk phospholipids (w/v) in the form of liposomes that were prepared as previously described, 20 mM Tris HCl pH 7.5, and 10 mM L-His in a final volume of 700 μL. This mixture was incubated with 0.5 g of Amberlite XAD-4 for 90 min at 23 °C, 1200 rpm to retain detergent.\nTo perform transport assays, the external substrate was removed by gel filtration chromatography: 600 μL of proteoliposomes were passed through a Sephadex G-75 column (0.7 cm diameter × 15 cm height) pre-equilibrated with 20 mM Tris HCl pH 7.5 and a concentration of sucrose to balance internal osmolarity. Transport was started adding 5 μM [^3H]-His to proteoliposomes and stopped after 30 min according to the stop inhibitor method, as previously described. In brief, in controls 1.5 µM HgCl2 was added at time zero and radioactivity was subtracted to samples for calculating net transport. After stopping the transport reaction, 100 μL of proteoliposomes was subjected to gel filtration chromatography using a Sephadex G-75 column (0.6 cm diameter × 8 cm height), to separate the external from the internal radioactivity. Proteoliposomes were eluted with 1 mL 50 mM NaCl in 4 mL scintillation mixture and counted. […] Protein concentration was estimated by Chemidoc imaging system1 [104] to calculate the human LAT1 specific activity."}, "LAT1 [4]": {"tested_on": "LAT1", "settings": "human colon cancer (HT-29) cells; cited from earlier work"}, "LAT1 [5]": {"tested_on": "LAT1", "settings": "S2 cells; cited from earlier work"}}, "note": "Where “and” joins values, the source holds several entries; their conditions need not be identical. Equal values may be shown once. Read-outs that look alike come from different tables or passages of the source."}
{"smiles": "NC1(C(=O)O)CCc2ccccc2C1", "note": "(stereo not shown) [Compound 8, 2-Amino-1,2,3,4-tetrahydro-2-naphthoic acid]", "values": [{"measurement": "times more potent than 10", "setting": "LAT1 [1]", "value": 9}]}
{"smiles": "NC1(C(=O)O)CC2CCC1C2", "note": "(stereo not shown) [Compound 1, 2-Amino-2-norbornanecarboxylic acid]", "values": [{"measurement": "IC50", "setting": "recombinant human LAT1 [2]; same test system, determined previously", "value": "6800 ± 270", "unit": "nM"}, {"measurement": "concentration required to attain antiproliferative effects", "setting": "cancer growth", "value": "> 10", "unit": "mM"}, {"measurement": "% Residual Activity", "setting": "recombinant human LAT1 [3]", "value": 6.1, "unit": "%"}]}
{"smiles": "FC(F)(F)Oc1ccc(/N=c2\\ssnc2Cl)cc1", "note": "[Compound 3, (Z)-4-chloro-N-(4-(trifluoromethoxy)phenyl)-5H-1,2,3-dithiazol-5-imine]", "values": [{"measurement": "inhibition of human LAT1 reconstituted in proteoliposomes, in words", "setting": "recombinant human LAT1 [2]", "value": "potent inhibition"}]}
{"smiles": "Nc1cc(COc2c(Cl)cc(C[C@H](N)C(=O)O)cc2Cl)c2oc(-c3ccccc3)nc2c1", "note": "[Compound 2]", "values": [{"measurement": "IC50", "setting": "LAT1 [4]", "value": 60, "unit": "nM"}, {"measurement": "IC50", "setting": "LAT1 [5]", "value": 140, "unit": "nM"}]}
{"smiles": "N[C@@H](Cc1c[nH]c2ccc(OCc3ccccc3)cc12)C(=O)O", "note": "[Compound 42]", "values": [{"measurement": "IC50", "setting": "recombinant human LAT1 [3]; 5 μM [3H]-His, proteoliposomes containing 10 mM His, mean ± S.D., three experiments", "value": "1480 ± 270", "unit": "nM"}, {"measurement": "inhibition at 100 µM", "setting": "recombinant human LAT1 [3]; 100 µM compound", "value": "> 90", "unit": "%"}, {"measurement": "LAT1 inhibition, activity in words", "setting": "recombinant human LAT1 [3]; 100 μM compound, [3H]-His uptake in proteoliposomes", "value": "almost complete inhibition"}, {"measurement": "% Residual Activity", "setting": "recombinant human LAT1 [3]", "value": 7.83, "unit": "%"}, {"measurement": "Dose-response analysis, single experiments", "setting": "recombinant human LAT1 [3]; 0.1 [] M compound", "value": "91.01 and 109.97 and 91.55"}, {"measurement": "Dose-response analysis, Mean", "setting": "recombinant human LAT1 [3]; 0.1 [] M compound", "value": 97.51}, {"measurement": "Dose-response analysis, single experiments", "setting": "recombinant human LAT1 [3]; 0.2 [] M compound", "value": "77.34 and 82.24 and 73.67"}, {"measurement": "Dose-response analysis, Mean", "setting": "recombinant human LAT1 [3]; 0.2 [] M compound", "value": 77.75}, {"measurement": "Dose-response analysis, single experiments", "setting": "recombinant human LAT1 [3]; 0.5 [] M compound", "value": "72.30 and 76.32 and 64.01"}, {"measurement": "Dose-response analysis, Mean", "setting": "recombinant human LAT1 [3]; 0.5 [] M compound", "value": 70.88}, {"measurement": "Dose-response analysis, single experiments", "setting": "recombinant human LAT1 [3]; 1 [] M compound", "value": "64.39 and 51.09 and 41.55"}, {"measurement": "Dose-response analysis, Mean", "setting": "recombinant human LAT1 [3]; 1 [] M compound", "value": 52.34}, {"measurement": "Dose-response analysis, single experiments", "setting": "recombinant human LAT1 [3]; 2.5 [] M compound", "value": "42.45 and 36.45 and 24.15"}, {"measurement": "Dose-response analysis, Mean", "setting": "recombinant human LAT1 [3]; 2.5 [] M compound", "value": 34.35}, {"measurement": "Dose-response analysis, Mean", "setting": "recombinant human LAT1 [3]; 5 [] M compound", "value": 29.11}, {"measurement": "Dose-response analysis, Mean", "setting": "recombinant human LAT1 [3]; 10 [] M compound", "value": 18.24}, {"measurement": "Dose-response analysis, Mean", "setting": "recombinant human LAT1 [3]; 25 [] M compound", "value": 21.07}, {"measurement": "Dose-response analysis, single experiments", "setting": "recombinant human LAT1 [3]; 50 [] M compound", "value": "12.95 and 13.71 and 13.30"}, {"measurement": "Dose-response analysis, Mean", "setting": "recombinant human LAT1 [3]; 50 [] M compound", "value": 13.32}, {"measurement": "Dose-response analysis, Mean", "setting": "recombinant human LAT1 [3]; 100 [] M compound", "value": 14.52}, {"measurement": "times more potent than 1", "setting": "recombinant human LAT1 [3]; ratio of IC50 values versus 1 (BCH)", "value": "~four times more potent"}]}
